pIC50: −log10 of the molar value. The source made the active and inactive calls. No cut-off for these calls is given here.
Assays:
MDA-MB-231 = experiment: Antiproliferative activity against human MDA-MB-231 cells assessed as inhibition of cell growth incubated for 72 hrs by MTT assay; assay type: functional, cell-based; settings: MDA-MB-231, 72 h
[1] = Cytotoxicity against human GES1 cells assessed as inhibition of cell growth incubated for 72 hrs by MTT assay; assay type: toxicity, cell-based
[2] = Half life in Sprague-Dawley rat at 2 mg/kg,iv administration by LC-MS/MS analysis; assay type: ADME, organism-based; settings: in vivo
SK-N-BE(2) = experiment: Antiproliferative activity against human SK-N-BE(2) cells assessed as inhibition of cell growth incubated for 72 hrs by MTT assay; assay type: functional, cell-based; settings: SKNBE2, 72 h
MV4-11 = experiment: Antiproliferative activity against human MV4-11 cells assessed as inhibition of cell growth incubated for 72 hrs by MTT assay; assay type: functional, cell-based; settings: MV4-11, 72 h
Myc-CaP [3] = experiment: Antitumor activity against mouse Myc-CaP cells implanted in FVB mouse assessed as tumor growth inhibition at 10 mg/kg,ip administrated daily for 14 consecutive days relative to control; assay type: functional; settings: read-out: TGI
[4] = Toxicity in FVB mouse implanted with mouse Myc-CaP cells assessed as histopathological change in lung at 10 to 50 mg/kg,ip administrated daily for 14 consecutive days by hematoxylin and eosin staining based microscopic analysis; assay type: organism-based; settings: in vivo, dose 10-50 mg/kg
[5] = Toxicity in FVB mouse implanted with mouse Myc-CaP cells assessed as histopathological change in heart at 10 to 50 mg/kg,ip administrated daily for 14 consecutive days by hematoxylin and eosin staining based microscopic analysis; assay type: organism-based; settings: in vivo, dose 10-50 mg/kg
SGC-7901 = experiment: Antiproliferative activity against human SGC-7901 cells assessed as inhibition of cell growth incubated for 72 hrs by MTT assay; assay type: functional, cell-based; settings: SGC-7901, 72 h
Myc-CaP [6] = experiment: Antiproliferative activity against mouse Myc-CaP cells assessed as inhibition of cell growth incubated for 72 hrs by MTT assay; assay type: functional, cell-based
[7] = Clearance in Sprague-Dawley rat at 2 mg/kg,iv administration by LC-MS/MS analysis; assay type: ADME, organism-based; settings: in vivo
[8] = target: c-Myc/c-Max (Homo sapiens) (UniProt P01106+P61244); experiment: Inhibition of MYC/MAX protein-protein interaction in human PC-3 cells at 1 uM incubated for 30 mins; assay type: cell-based
Sequence of c-Myc/c-Max (Homo sapiens) (P01106 whole entry): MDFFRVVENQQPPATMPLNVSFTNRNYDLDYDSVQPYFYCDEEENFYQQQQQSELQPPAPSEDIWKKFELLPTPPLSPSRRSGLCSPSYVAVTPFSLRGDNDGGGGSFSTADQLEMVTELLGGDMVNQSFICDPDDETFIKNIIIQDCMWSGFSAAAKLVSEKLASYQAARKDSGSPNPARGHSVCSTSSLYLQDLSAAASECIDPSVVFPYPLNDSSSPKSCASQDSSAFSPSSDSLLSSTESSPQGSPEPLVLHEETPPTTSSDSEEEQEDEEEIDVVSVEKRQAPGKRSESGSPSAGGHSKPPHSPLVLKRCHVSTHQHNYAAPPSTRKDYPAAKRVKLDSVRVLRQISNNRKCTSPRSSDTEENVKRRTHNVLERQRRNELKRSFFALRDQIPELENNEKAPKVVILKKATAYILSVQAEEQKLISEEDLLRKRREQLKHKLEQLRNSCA
Sequence of c-Myc/c-Max (Homo sapiens) (P61244 2-160 partner limits assumed): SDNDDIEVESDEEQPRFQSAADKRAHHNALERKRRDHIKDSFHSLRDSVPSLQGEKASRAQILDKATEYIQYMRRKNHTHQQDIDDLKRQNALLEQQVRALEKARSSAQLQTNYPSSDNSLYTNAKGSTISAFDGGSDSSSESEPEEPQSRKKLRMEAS

[9] = Toxicity in FVB mouse implanted with mouse Myc-CaP cells assessed as histopathological change in spleen at 10 to 50 mg/kg,ip administrated daily for 14 consecutive days by hematoxylin and eosin staining based microscopic analysis; assay type: organism-based; settings: in vivo, dose 10-50 mg/kg
Myc-CaP [10] = experiment: Antitumor activity against mouse Myc-CaP cells implanted in FVB mouse assessed as tumor growth inhibition at 50 mg/kg,ip administrated daily for 14 consecutive days relative to control; assay type: functional; settings: read-out: TGI
SK-OV-3 = experiment: Antiproliferative activity against human SK-OV-3 cells assessed as inhibition of cell growth incubated for 72 hrs by MTT assay; assay type: functional, cell-based; settings: SK-OV-3, 72 h
[11] = Toxicity in FVB mouse implanted with mouse Myc-CaP cells assessed as histopathological change in liver at 10 to 50 mg/kg,ip administrated daily for 14 consecutive days by hematoxylin and eosin staining based microscopic analysis; assay type: organism-based; settings: in vivo, dose 10-50 mg/kg
[12] = AUC (0 to t) in Sprague-Dawley rat at 10 mg/kg,ip administration by LC-MS/MS analysis; assay type: ADME, organism-based; settings: in vivo
[13] = Volume of distribution at steady state in Sprague-Dawley rat at 10 mg/kg,ip administration by LC-MS/MS analysis; assay type: ADME, organism-based; settings: in vivo
A549 = experiment: Antiproliferative activity against human A549 cells assessed as inhibition of cell growth incubated for 72 hrs by MTT assay; assay type: functional, cell-based; settings: A549, 72 h
HCT-116 = experiment: Antiproliferative activity against human HCT-116 cells assessed as inhibition of cell growth incubated for 72 hrs by MTT assay; assay type: functional, cell-based; settings: HCT-116, 72 h
MDA-MB-468 = experiment: Antiproliferative activity against human MDA-MB-468 cells assessed as inhibition of cell growth incubated for 72 hrs by MTT assay; assay type: functional, cell-based; settings: MDA-MB-468, 72 h
Myc-CaP [14] = experiment: Antitumor activity against mouse Myc-CaP cells implanted in FVB mouse assessed as tumor growth inhibition at 30 mg/kg,ip administrated daily for 14 consecutive days relative to control; assay type: functional; settings: read-out: TGI
[15] = target: Myc proto-oncogene protein (Homo sapiens) (UniProt P01106); experiment: Inhibition of MYC in human PC-3 cells assessed as downregulation of MYC expression incubated for 24 hrs by Western blotting analysis; assay type: cell-based
Sequence of Myc proto-oncogene protein (Homo sapiens) (P01106 whole entry): as the sequence (P01106 whole entry) above

Myc-CaP [16] = experiment: Antitumor activity against mouse Myc-CaP cells implanted in FVB mouse assessed as reduction in tumor weight at ip administrated daily for 14 consecutive days; assay type: functional, organism-based
PC-3 [17] = experiment: Antitumor activity against human PC-3 cells xenografted in BALB/C mouse assessed as tumor growth inhibition at 100 mg/kg,ip administrated daily for 21 consecutive days relative to control; assay type: functional; settings: read-out: TGI
[18] = Volume of distribution at steady state in Sprague-Dawley rat at 2 mg/kg,iv administration by LC-MS/MS analysis; assay type: ADME, organism-based; settings: in vivo, read-out: Vdss
[19] = target: Protein max (Homo sapiens) (UniProt P61244); experiment: Binding affinity to MAX in human PC-3 cells assessed as effect on protein thermal stabilization at 10 uM with 37 to 58 degreeC incubated for 1 hr by CETSA based Western blotting analysis; assay type: cell-based
Sequence of Protein max (Homo sapiens) (P61244 whole entry): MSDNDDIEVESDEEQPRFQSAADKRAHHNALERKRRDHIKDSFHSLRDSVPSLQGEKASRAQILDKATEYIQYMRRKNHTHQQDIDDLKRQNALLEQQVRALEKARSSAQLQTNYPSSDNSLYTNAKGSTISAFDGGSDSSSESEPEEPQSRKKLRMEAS

[20] = Cytotoxicity against human HUVEC cells assessed as inhibition of cell growth incubated for 72 hrs by MTT assay; assay type: toxicity, cell-based
HepG2 = experiment: Antiproliferative activity against human HepG2 cells assessed as inhibition of cell growth incubated for 72 hrs by MTT assay; assay type: functional, cell-based; settings: HepG2, 72 h
[21] = Toxicity in BALB/C mouse xenografted with human PC-3 cells assessed as body weight loss at 50 to 100 mg/kg,ip administrated daily for 21 consecutive days; assay type: organism-based; settings: in vivo, dose 50-100 mg/kg
[22] = Bioavailability in Sprague-Dawley rat at 2 mg/kg,iv administration by LC-MS/MS analysis; assay type: ADME, organism-based; settings: in vivo
[23] = Toxicity in BALB/C mouse xenografted with human PC-3 cells assessed as histopathological change in kidney at 50 to 100 mg/kg,ip administrated daily for 21 consecutive days by hematoxylin and eosin staining based microscopic analysis; assay type: organism-based; settings: in vivo, dose 50-100 mg/kg
PC-3 [24] = experiment: Antitumor activity against human PC-3 cells xenografted in BALB/C mouse assessed as tumor growth inhibition at 50 mg/kg,ip administrated daily for 21 consecutive days relative to control; assay type: functional; settings: read-out: TGI
[25] = target: Myc proto-oncogene protein (Homo sapiens) (UniProt P01106); experiment: Binding affinity to MYC in human PC-3 cells assessed as decrease in melting temperature at 10 uM with 37 to 52 degreeC incubated for 1 hr by CETSA based Western blotting analysis; assay type: cell-based
[26] = Half life in Sprague-Dawley rat at 10 mg/kg,ip administration by LC-MS/MS analysis; assay type: ADME, organism-based; settings: in vivo
[27] = target: Myc proto-oncogene protein (Homo sapiens) (UniProt P01106); experiment: Inhibition of MYC in human PC-3 cells assessed as downregulation of MYC expression at 10 uM incubated for 24 hrs in presence of proteasome inhibitor MG132 by Western blotting analysis; assay type: cell-based
[28] = AUC (0 to t) in Sprague-Dawley rat at 2 mg/kg,iv administration by LC-MS/MS analysis; assay type: ADME, organism-based; settings: in vivo

With `Oc1c(-c2cc(C(F)(F)F)n[nH]2)ccc(C#CCCN2CCOCC2)c1-c1ccc(Cl)c(C(F)(F)F)c1` the pIC50 (MDA-MB-231) was 5.87, the IC50 at 72 h [1] was > 100000 nM and the half-life [2] was 3.22 h. For the same compound, the pIC50 (SK-N-BE(2)) was 5.90, the pIC50 (MV4-11) was 6.05 and the inhibition in vivo at 10 mg/kg (Myc-CaP [3]) was 37%. For the same compound, the Activity [4] was “Non-Toxic”, the Activity [5] was “Non-Toxic” and the pIC50 (SGC-7901) was 5.71. The pIC50 (Myc-CaP [6]) was 6.26, the clearance [7] was 23.6 mL/min/kg and the inhibition [8] was “Active”. The Activity [9] was “Non-Toxic”, the inhibition in vivo at 50 mg/kg (Myc-CaP [10]) was 85% and the pIC50 (SK-OV-3) was 5.90. For the same compound, the Activity [11] was “Non-Toxic”, the AUC(0-t) [12] was 2220 ng·h/mL and the Vdss [13] was 38.43 L/kg. For the same compound, the pIC50 (A549) was 5.91, the pIC50 (HCT-116) was 6.00 and the pIC50 (MDA-MB-468) was 5.36. The inhibition in vivo at 30 mg/kg (Myc-CaP [14]) was 67%, the inhibition [15] was “Dose-Dependent Effect” and the Activity (Myc-CaP [16]) was “Dose-Dependent Effect”. For the same compound, the inhibition in vivo at 100 mg/kg (PC-3 [17]) was 79%, the Vd [18] was 6.41 L/kg and the Activity [19] was “inactive”. For the same compound, the IC50 at 72 h [20] was 16600 nM, the pIC50 (HepG2) was 5.96 and the Activity [21] was “Toxic”. For the same compound, the bioavailability [22] was 31.7%, the Activity [23] was “Non-Toxic” and the inhibition in vivo at 50 mg/kg (PC-3 [24]) was 33%. For the same compound, the Activity [25] was “Active”, the half-life [26] was 5.97 h and the inhibition [27] was “inactive”. The AUC(0-t) [28] was 1400 ng·h/mL.

Source: ChEMBL document CHEMBL5500426, “Directly Suppressing MYC Function with Novel Alkynyl-Substituted Phenylpyrazole Derivatives that Induce Protein Degradation and Perturb MYC/MAX Interaction” (J Med Chem, 2024)
